The values below come from ChEMBL document CHEMBL5465560, “Selectivity Literature for EUbOPEN Chemogenomic Library” (2024).

In test [1] the target is Serine/threonine-protein kinase WNK2 (Homo sapiens) (UniProt Q9Y3S1). The test can be described thus: Selectivity interaction (LanthaScreen Eu Kinase Binding Assay) EUB0001632a WNK2. The conditions noted are these: at 10 µM. Background: TR-FRET usually uses a lanthanide donor and a delayed reading to cut background.
Test [2] has as its target T1, Mitogen-activated protein kinase 15 (Homo sapiens) (UniProt Q8TD08).
T1 sequence (whole entry): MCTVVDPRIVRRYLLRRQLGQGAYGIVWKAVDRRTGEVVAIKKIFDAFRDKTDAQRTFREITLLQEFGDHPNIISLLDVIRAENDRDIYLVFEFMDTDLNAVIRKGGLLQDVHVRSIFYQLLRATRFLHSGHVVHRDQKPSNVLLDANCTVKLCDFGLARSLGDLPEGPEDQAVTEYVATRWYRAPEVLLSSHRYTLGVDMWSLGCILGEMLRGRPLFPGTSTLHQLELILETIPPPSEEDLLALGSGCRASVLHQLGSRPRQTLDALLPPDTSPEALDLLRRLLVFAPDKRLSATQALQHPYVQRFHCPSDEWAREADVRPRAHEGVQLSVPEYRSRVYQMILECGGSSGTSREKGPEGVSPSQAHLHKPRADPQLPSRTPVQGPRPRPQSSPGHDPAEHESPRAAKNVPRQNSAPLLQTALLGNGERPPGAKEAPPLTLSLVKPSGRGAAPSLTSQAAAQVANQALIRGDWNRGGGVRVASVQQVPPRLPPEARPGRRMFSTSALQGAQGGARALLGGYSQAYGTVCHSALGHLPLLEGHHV
The test can be described thus: Selectivity interaction (KinomeScan (DiscoverX)) EUB0001619a MAPK15. The note with it: at 1 µM.

The target of test [3] is T2, Inhibitor of nuclear factor kappa-B kinase subunit beta (Homo sapiens) (UniProt O14920).
T2 sequence (whole entry): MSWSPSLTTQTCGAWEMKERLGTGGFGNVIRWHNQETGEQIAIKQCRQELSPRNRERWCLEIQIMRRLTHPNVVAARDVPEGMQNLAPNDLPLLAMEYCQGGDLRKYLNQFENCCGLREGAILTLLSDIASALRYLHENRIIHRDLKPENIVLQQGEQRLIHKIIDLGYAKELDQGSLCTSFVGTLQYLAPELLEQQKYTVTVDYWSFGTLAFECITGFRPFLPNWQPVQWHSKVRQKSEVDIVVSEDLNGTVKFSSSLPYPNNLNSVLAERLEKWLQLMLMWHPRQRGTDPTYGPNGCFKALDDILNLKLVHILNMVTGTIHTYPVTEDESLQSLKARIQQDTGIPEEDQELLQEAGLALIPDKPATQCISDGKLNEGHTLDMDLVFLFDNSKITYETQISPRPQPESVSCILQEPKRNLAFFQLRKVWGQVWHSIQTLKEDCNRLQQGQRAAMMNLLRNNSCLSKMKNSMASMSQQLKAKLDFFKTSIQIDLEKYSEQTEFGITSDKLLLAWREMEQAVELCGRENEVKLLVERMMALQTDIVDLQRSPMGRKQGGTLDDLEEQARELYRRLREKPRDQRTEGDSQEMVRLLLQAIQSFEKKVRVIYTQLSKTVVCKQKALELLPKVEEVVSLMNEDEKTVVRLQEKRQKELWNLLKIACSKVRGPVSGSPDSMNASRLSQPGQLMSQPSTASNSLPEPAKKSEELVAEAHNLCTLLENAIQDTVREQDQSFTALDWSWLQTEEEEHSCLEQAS
The test can be described thus: Selectivity interaction (KinomeScan (DiscoverX)) EUB0001619a IKBKB. The note with it: at 1 µM.

The target of test [4] is Mitogen-activated protein kinase kinase kinase 9 (Homo sapiens) (UniProt P80192). As to the kind of experiment: Selectivity interaction (KinomeScan (DiscoverX)) EUB0001619a MAP3K9. The conditions noted are these: at 1 µM.
Test [5] has as its target RAC-beta serine/threonine-protein kinase (Homo sapiens) (UniProt P31751). The note with it: at 10 µM.
Test [6] has as its target Mitogen-activated protein kinase kinase kinase 4 (Homo sapiens) (UniProt Q9Y6R4). As to the kind of experiment: Selectivity interaction (KinomeScan (DiscoverX)) EUB0000045b MAP3K4.
In test [7] the target is Cyclin-dependent kinase 5/CDK5 activator 1 (Homo sapiens) (UniProt Q00535+Q15078). The test can be described thus: Selectivity interaction (ProQinase) EUB0000171b CDK5. The class given is protein-complex assay. The conditions noted are these: at 5 µM.
For test [8], the target named is Serine/threonine-protein kinase SIK2 (Homo sapiens) (UniProt Q9H0K1). As to the kind of experiment: Selectivity interaction (KinomeScan (DiscoverX)) EUB0001049a SIK2. The note with it: at 1 µM.
Test [9] deals with Wee1-like protein kinase 2 (Homo sapiens) (UniProt P0C1S8). As to the kind of experiment: Selectivity interaction (KinomeScan (DiscoverX)) EUB0001049a WEE2. The conditions noted are these: at 1 µM.
Chain of Wee1-like protein kinase 2 (Homo sapiens) (P0C1S8 whole entry, looked up): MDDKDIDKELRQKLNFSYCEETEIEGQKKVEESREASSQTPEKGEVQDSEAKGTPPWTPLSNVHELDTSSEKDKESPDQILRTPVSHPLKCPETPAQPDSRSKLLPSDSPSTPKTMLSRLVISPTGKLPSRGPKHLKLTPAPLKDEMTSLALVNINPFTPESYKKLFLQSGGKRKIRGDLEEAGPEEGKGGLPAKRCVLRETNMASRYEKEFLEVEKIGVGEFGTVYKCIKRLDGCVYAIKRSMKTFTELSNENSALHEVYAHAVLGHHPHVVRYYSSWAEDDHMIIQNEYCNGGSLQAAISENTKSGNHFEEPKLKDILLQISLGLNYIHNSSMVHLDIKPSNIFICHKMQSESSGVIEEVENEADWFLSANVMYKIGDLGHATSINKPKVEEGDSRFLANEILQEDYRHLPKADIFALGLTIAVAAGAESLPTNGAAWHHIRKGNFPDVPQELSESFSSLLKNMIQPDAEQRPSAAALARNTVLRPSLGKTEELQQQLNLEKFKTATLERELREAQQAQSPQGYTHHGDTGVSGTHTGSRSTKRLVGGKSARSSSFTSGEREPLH
Test [10] has as its target Protein arginine N-methyltransferase 5 (Homo sapiens, UniProt O14744). As to the kind of experiment: Selectivity interaction (Transferase panel (protein, RNA, and DNA methyltransferases. and EP300 (acetyltransferase))) EUB0000270b PRMT5.
Test [11] has as its target T3, Serine/threonine-protein kinase DCLK3 (Homo sapiens) (UniProt Q9C098).
T3 sequence (whole entry): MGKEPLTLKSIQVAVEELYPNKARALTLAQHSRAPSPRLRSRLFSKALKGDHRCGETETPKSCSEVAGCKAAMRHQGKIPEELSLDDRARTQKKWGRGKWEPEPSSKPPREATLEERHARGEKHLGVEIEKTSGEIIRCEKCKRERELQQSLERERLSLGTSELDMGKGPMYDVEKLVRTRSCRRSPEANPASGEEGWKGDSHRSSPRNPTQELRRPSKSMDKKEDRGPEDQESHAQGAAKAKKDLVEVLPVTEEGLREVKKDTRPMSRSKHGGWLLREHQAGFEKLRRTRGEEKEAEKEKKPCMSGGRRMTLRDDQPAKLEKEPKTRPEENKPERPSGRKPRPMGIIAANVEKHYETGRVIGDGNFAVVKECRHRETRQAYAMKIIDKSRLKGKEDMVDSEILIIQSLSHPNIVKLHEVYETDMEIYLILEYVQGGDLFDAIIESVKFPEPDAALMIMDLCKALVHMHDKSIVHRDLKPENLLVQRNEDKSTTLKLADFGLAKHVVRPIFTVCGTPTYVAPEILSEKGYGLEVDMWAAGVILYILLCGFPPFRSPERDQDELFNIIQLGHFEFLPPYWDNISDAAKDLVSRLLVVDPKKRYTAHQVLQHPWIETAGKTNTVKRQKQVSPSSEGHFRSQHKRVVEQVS
The test can be described thus: Selectivity interaction (KinomeScan (DiscoverX)) EUB0000092b DCLK3. The conditions noted are these: at 10 µM.

Test [12] addresses Ribosomal protein S6 kinase alpha-2 (Homo sapiens) (UniProt Q15349). As to the kind of experiment: Selectivity interaction (KinomeScan (DiscoverX)) EUB0000092b RPS6KA2. The conditions noted are these: at 10 µM.
In test [13] the target is Citron Rho-interacting kinase (Homo sapiens) (UniProt O14578). As to the kind of experiment: Selectivity interaction (KinomeScan (DiscoverX)) EUB0001079a CIT. The note with it: at 1 µM.
Chain of Citron Rho-interacting kinase (Homo sapiens) (O14578 whole entry): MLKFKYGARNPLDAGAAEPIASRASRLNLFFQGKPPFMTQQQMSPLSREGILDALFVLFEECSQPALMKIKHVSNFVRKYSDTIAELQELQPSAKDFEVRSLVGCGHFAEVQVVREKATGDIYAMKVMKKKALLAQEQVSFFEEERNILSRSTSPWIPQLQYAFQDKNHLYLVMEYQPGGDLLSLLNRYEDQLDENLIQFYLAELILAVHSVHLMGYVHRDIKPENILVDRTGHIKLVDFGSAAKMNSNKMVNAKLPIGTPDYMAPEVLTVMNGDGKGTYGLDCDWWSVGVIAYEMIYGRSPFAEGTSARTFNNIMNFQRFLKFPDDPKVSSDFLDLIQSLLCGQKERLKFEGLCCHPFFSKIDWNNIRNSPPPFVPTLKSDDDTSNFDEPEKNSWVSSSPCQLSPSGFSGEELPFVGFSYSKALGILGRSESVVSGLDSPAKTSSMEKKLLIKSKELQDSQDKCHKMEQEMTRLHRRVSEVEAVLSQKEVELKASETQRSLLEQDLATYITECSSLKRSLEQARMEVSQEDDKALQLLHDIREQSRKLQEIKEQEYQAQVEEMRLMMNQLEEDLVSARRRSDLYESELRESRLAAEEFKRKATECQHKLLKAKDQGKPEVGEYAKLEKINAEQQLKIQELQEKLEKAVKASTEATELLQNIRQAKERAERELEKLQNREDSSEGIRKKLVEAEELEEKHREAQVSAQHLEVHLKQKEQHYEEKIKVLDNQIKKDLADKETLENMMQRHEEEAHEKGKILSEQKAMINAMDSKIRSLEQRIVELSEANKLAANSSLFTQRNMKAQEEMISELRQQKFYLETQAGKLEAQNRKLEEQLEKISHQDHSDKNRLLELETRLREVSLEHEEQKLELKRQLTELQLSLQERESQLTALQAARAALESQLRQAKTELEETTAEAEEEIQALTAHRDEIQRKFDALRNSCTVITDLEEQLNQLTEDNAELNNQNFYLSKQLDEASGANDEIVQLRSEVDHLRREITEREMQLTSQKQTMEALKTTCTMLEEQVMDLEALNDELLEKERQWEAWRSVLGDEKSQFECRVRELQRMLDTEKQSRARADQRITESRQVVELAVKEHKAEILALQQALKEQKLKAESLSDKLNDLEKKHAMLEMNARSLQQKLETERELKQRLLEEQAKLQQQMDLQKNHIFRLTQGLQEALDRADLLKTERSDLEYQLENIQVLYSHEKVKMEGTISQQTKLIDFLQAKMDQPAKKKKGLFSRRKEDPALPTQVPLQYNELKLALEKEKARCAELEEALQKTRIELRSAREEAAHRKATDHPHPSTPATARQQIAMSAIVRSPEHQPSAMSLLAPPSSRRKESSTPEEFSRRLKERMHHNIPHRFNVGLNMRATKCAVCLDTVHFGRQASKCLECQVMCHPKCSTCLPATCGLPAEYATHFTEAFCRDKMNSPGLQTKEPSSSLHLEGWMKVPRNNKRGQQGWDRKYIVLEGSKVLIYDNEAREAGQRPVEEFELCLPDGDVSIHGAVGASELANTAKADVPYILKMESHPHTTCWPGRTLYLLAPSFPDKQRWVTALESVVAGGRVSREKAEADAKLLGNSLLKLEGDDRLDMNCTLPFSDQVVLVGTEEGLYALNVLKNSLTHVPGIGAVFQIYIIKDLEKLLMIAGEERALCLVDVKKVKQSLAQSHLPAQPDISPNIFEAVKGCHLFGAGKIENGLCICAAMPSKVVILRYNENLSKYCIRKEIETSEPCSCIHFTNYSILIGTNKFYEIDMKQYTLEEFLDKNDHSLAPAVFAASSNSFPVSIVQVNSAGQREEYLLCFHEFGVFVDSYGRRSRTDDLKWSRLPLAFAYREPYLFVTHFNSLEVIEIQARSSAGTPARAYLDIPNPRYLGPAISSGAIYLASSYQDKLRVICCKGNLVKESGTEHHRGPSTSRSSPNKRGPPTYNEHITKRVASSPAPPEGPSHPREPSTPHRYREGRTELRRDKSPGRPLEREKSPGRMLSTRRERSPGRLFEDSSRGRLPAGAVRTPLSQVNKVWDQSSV
Test [14] has as its target Mitogen-activated protein kinase kinase kinase 4 (Homo sapiens) (UniProt Q9Y6R4). The test can be described thus: Selectivity interaction (KinomeScan (DiscoverX)) EUB0000229b MAP3K4. The conditions noted are these: at 10 µM.

Chain of Mitogen-activated protein kinase kinase kinase 4 (Homo sapiens) (Q9Y6R4 whole entry): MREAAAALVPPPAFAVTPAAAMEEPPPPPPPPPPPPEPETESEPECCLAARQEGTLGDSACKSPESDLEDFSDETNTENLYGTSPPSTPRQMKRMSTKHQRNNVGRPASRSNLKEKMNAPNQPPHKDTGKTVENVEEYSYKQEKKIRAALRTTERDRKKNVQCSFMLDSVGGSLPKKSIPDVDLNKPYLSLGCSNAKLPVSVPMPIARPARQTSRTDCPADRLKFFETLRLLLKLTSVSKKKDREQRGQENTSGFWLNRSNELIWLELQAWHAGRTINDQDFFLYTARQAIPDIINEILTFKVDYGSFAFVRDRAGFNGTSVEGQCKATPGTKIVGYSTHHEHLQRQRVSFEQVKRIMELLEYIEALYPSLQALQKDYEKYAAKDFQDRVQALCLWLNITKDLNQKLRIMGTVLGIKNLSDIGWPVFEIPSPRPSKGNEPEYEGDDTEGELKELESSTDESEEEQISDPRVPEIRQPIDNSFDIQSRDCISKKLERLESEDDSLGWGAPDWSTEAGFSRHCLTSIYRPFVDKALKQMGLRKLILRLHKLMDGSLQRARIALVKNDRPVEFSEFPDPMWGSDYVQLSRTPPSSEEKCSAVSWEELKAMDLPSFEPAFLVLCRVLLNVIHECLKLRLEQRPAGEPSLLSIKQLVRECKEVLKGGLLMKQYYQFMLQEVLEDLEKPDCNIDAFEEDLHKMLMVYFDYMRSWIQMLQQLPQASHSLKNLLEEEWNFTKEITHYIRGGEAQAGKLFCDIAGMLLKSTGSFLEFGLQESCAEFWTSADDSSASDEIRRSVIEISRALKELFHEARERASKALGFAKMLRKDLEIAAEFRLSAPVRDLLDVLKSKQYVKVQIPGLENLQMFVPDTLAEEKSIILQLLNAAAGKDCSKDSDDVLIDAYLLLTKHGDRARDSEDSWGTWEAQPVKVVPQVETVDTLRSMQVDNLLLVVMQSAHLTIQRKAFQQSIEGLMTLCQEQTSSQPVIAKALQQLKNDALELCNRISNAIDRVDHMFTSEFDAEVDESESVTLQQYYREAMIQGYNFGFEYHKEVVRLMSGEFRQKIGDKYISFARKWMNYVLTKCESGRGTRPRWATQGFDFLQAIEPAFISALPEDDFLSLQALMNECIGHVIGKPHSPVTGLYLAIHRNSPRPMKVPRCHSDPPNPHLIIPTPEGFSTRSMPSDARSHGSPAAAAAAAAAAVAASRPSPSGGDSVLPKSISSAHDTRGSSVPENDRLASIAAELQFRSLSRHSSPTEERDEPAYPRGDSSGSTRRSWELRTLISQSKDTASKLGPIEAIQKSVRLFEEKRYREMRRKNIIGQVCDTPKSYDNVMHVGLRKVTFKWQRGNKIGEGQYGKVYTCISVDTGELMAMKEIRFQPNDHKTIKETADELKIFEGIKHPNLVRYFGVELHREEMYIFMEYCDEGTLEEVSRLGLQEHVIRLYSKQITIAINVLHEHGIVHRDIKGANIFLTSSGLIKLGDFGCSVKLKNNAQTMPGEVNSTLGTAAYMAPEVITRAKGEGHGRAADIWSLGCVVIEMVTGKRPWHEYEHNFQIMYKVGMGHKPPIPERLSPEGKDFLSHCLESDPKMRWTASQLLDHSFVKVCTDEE
Chain of Protein arginine N-methyltransferase 5 (O14744 whole entry): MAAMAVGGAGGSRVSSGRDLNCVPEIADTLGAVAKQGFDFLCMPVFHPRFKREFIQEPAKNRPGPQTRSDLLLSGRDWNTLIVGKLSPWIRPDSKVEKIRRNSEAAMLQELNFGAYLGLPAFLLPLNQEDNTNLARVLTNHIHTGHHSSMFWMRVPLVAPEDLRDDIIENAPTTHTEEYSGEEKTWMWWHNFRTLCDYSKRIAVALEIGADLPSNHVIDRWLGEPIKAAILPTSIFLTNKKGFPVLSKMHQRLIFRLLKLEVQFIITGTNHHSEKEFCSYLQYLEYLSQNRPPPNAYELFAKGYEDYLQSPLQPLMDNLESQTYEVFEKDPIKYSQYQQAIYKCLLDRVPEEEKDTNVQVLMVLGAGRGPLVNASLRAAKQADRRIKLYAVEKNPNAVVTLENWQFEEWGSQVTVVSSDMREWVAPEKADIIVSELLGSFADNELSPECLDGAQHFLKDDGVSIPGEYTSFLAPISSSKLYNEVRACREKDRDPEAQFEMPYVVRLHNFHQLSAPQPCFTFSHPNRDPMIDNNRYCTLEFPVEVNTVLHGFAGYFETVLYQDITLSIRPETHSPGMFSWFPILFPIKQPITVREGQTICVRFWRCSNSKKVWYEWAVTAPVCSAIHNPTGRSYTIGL

Take `Cn1cc(-n2cnc3c(NCc4nc5cc(Cl)c(Cl)cc5[nH]4)nc(N4CCOCC4)nc32)cn1`: the % of inhibition in test [1] is -13.6%. Turning to `N#Cc1cccc(-c2c[nH]c3ncnc(N4CCOCC4)c23)c1`, the % of control in test [2] was found to be 56%; in test [3], 90%; in [4], 72%.

`Cc1cc([C@@H](C)Nc2ccccc2C(=O)O)c2nc(N3CCOCC3)cc(=O)n2c1` [AZD-6482] registered a % of control in test [5] of 86%. Take `C=CC(=O)Nc1cc(-n2c(=O)ccc3cnc4ccc(-c5ccc(NS(C)(=O)=O)cc5)cc4c32)ccc1C`: the % of control in test [6] (at 1 µM) was 89%; in test [6] (at 10 µM), 100%.

Turning to `C=CC(=O)Nc1cccc(C(=O)Nc2ccc(Nc3cc(-c4[nH]c(SC)nc4C)ccn3)cc2)c1`, the % of control in test [7] is 36%.

For `COc1cc(Nc2nc(C)cc(-c3cnn4nc(OC)ccc34)n2)cc(C(F)(F)F)c1`, the % of control in test [8] and in test [9] was 100% throughout. For the molecule `Cc1cc(CN)cc(C)c1-c1ncn(C)c1-c1cncn1C`, the % activity in test [10] (at 1 µM) was above 90%; in test [10] (at 10 µM) it was above 80%. Consider `CCC(=O)N1CCN(c2ccc(-n3c(=O)ccc4cnc5ccc(-c6cnc7ccccc7c6)cc5c43)cc2C(F)(F)F)CC1`, for which the % of control in test [11] came to 97%; in test [12] it was 100%. For the molecule `Nc1cnc(N2CCc3cc(S(=O)(=O)Nc4c(F)cc(Cl)cc4F)cc(N4CCCC4=O)c32)nc1` [TP-020n], the % of control in test [13] is 91%. `COc1cc(N(C)c2ccnc3ccc(C(F)(F)F)cc23)cc(OC)c1OC` gave a % binding in test [14] of 100%.
